# Patent US10844077B2, “Thiazolyl-containing compounds for treating proliferative diseases” (Dana-Farber Cancer Institute, Inc., priority 2014, dated 2020)
# Values joined by “and” are separate entries in the source; they are usually repeats but may differ in a detail not shown here. Equal entries are not always repeated. Where two headings read alike, the source gives them in different places.
# What was measured:
# kinases in BCWM.1 cells [1] = target: kinases in BCWM.1 cells (Homo sapiens, UniProt P51451); test: KINATIV assay of compounds I-3 and I-9, lysate directly labeled with ATP-biotin probe (no GF); type: cell-based; conditions: BLK; Activation Loop; 1 μM; no GF
# Description: (§1) The cells were harvested and lysed. […] Bound kinases were identified and quantitated by ACTIVX as described in Patricelli et al., Biochemistry, 2007, 46(2): 350-358. The compounds were tested in duplicates against duplicate or quadruplicate control samples.
# kinases in BCWM.1 cells [2] = target: kinases in BCWM.1 cells (Homo sapiens, UniProt O75582); test: as above; type: cell-based; conditions: MSK1 domain1; Lys2; 1 μM; no GF
# Description: as §1
# kinases in BCWM.1 cells [3] = target: T1, kinases in BCWM.1 cells (Homo sapiens, UniProt Q96L34); test: as above; type: cell-based; conditions: MARK4; Lys2; 1 μM; no GF
# Description: as §1
# kinases in BCWM.1 cells [4] = target: kinases in BCWM.1 cells (Homo sapiens, UniProt Q13418); test: as above; type: cell-based; conditions: ILK; Protein Kinase Domain; 1 μM; no GF
# Description: as §1
# kinases in BCWM.1 cells [5] = target: kinases in BCWM.1 cells (Homo sapiens, UniProt Q13233); test: as above; type: cell-based; conditions: MAP3K1; Lys2; 1 μM; no GF
# Description: as §1
# kinases in BCWM.1 cells [6] = target: kinases in BCWM.1 cells (Homo sapiens, UniProt P49840); test: as above; type: cell-based; conditions: GSK3A; Lys2; 1 μM; no GF
# Description: as §1
# kinases in BCWM.1 cells [7] = target: T2, kinases in BCWM.1 cells (Homo sapiens, UniProt P78368); test: as above; type: cell-based; conditions: CK1g2; Lys2; 1 μM; no GF
# Description: as §1
# kinases in BCWM.1 cells [8] = target: kinases in BCWM.1 cells (Homo sapiens, UniProt Q12851); test: as above; type: cell-based; conditions: GCK; Lys2; 1 μM; no GF
# Description: as §1
# kinases in BCWM.1 cells [9] = target: T3, kinases in BCWM.1 cells (Homo sapiens, UniProt P23458); test: as above; type: cell-based; conditions: JAK1 domain2; Activation Loop; 1 μM; no GF
# Description: as §1
# kinases in BCWM.1 cells [10] = target: kinases in BCWM.1 cells (Homo sapiens, UniProt P00533); test: as above; type: cell-based; conditions: EGFR; Lys1; 1 μM; no GF
# Description: as §1
# BCWM.1 = test: CellTiter-Glo Luminescent cell viability assay; type: cell-based; conditions: cell survival, 72 hours
# Description: (§2) The inhibitory activities of exemplary compounds described herein against select protein kinases and cells were determined. Cell survival following treatment of exemplary compounds described herein was assessed by CellTiter-Glo® Luminescent cell viability assay (Promega). The cells were seeded into 384 well plates with the EL406 Combination Washer Dispenser (BioTek Instruments, Inc.), and a series diluted exemplary compounds (20˜0.0006 μM) were injected into the culture media with the JANUS Automated Workstation (PerkinElmer Inc.). The cells were treated for 72 hours at 37° C. with 5% CO2. Luminescent measurement is performed using the 2104 Envision® Multilabel Reader (PerkinElmer Inc.). EC50 values were calculated with […] PRISM software.
# OCI-Ly19 = test: CellTiter-Glo Luminescent cell viability assay; type: cell-based; conditions: cell survival, 72 hours
# Description: as §2
# HBL-1 = test: CellTiter-Glo Luminescent cell viability assay; type: cell-based; conditions: cell survival, 72 hours
# Description: as §2
# Ramos = test: CellTiter-Glo Luminescent cell viability assay; type: cell-based; conditions: cell survival, 72 hours
# Description: as §2
# MWCL-1 = test: CellTiter-Glo Luminescent cell viability assay; type: cell-based; conditions: cell survival, 72 hours
# Description: as §2
# TMD-8 = test: CellTiter-Glo Luminescent cell viability assay; type: cell-based; conditions: cell survival, 72 hours
# Description: as §2
# BTK = BTK (Homo sapiens (Human), UniProt Q06187); test: BTK inhibitory activity; type: biochemical
# kinases in BCWM.1 cells [11] = target: kinases in BCWM.1 cells (Homo sapiens, UniProt Q8TCG2); type: cell-based; conditions: PI4K2B; ATP; 1 μM, 90 min; GF
# Description: as §1
# kinases in BCWM.1 cells [12] = target: kinases in BCWM.1 cells (Homo sapiens, UniProt Q00535); type: cell-based; conditions: CDK5; Lys2; 1 μM; GF
# Description: as §1
# kinases in BCWM.1 cells [13] = target: T1, kinases in BCWM.1 cells; type: cell-based; conditions: MARK4; Lys2; 1 μM; GF
# Description: as §1
# kinases in BCWM.1 cells [14] = target: kinases in BCWM.1 cells (Homo sapiens, UniProt Q9Y6R4); type: cell-based; conditions: MAP3K4; Lys2; 1 μM; GF
# Description: as §1
# kinases in BCWM.1 cells [15] = target: T2, kinases in BCWM.1 cells; type: cell-based; conditions: CK1g2; Lys2; 1 μM; GF
# Description: as §1
# kinases in BCWM.1 cells [16] = target: kinases in BCWM.1 cells (Homo sapiens, UniProt O14733); type: cell-based; conditions: MAP2K7; Lys2; 1 μM; GF
# Description: as §1
# kinases in BCWM.1 cells [17] = target: kinases in BCWM.1 cells (Homo sapiens, UniProt Q13557); type: cell-based; conditions: CaMK2d; Lys1; 1 μM; GF
# Description: as §1
# kinases in BCWM.1 cells [18] = target: T3, kinases in BCWM.1 cells; type: cell-based; conditions: 1 μM, GF
# Description: as §1
# kinases in BCWM.1 cells [19] = target: kinases in BCWM.1 cells (Homo sapiens, UniProt Q99759); type: cell-based; conditions: MAP3K3; Lys1; 1 μM; GF
# Description: as §1
# kinases in BCWM.1 cells [20] = target: kinases in BCWM.1 cells (Homo sapiens, UniProt O15111); type: cell-based; conditions: IKKa; Lys2; 1 μM; GF
# Description: as §1
# kinases in BCWM.1 cells [21] = target: kinases in BCWM.1 cells (Homo sapiens, UniProt P78356); type: cell-based; conditions: PIP4K2B; ATP; 1 μM, 90 min; GF
# Description: as §1
# kinases in BCWM.1 cells [22] = target: kinases in BCWM.1 cells (Homo sapiens, UniProt Q16513); test: KINATIV assay of compounds I-3 and I-9, lysate directly labeled with ATP-biotin probe (no GF); type: cell-based; conditions: PKN2; Lys2; 1 μM, 90 min; no GF
# Description: as §1
# kinases in BCWM.1 cells [23] = target: kinases in BCWM.1 cells (Homo sapiens, UniProt P17612); test: as above; type: cell-based; conditions: PKACa; Lys2; 1 μM, 90 min; no GF
# Description: as §1
# kinases in BCWM.1 cells (Homo sapiens, UniProt O14733), sequence (O14733 2-419 limits assumed): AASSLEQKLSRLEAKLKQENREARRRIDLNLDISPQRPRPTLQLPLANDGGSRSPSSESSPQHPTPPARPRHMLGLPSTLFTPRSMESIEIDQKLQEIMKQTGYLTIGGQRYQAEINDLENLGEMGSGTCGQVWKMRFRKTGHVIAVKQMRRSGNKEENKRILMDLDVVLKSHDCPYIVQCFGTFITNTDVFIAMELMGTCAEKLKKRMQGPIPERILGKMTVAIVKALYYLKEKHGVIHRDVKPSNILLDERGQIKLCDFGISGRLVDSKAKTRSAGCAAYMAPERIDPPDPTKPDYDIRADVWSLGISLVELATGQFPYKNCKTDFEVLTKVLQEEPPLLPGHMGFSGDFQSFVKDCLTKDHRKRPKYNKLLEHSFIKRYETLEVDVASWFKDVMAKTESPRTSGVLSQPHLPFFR
# kinases in BCWM.1 cells (Homo sapiens, UniProt P00533), sequence (P00533 25-1210 limits assumed): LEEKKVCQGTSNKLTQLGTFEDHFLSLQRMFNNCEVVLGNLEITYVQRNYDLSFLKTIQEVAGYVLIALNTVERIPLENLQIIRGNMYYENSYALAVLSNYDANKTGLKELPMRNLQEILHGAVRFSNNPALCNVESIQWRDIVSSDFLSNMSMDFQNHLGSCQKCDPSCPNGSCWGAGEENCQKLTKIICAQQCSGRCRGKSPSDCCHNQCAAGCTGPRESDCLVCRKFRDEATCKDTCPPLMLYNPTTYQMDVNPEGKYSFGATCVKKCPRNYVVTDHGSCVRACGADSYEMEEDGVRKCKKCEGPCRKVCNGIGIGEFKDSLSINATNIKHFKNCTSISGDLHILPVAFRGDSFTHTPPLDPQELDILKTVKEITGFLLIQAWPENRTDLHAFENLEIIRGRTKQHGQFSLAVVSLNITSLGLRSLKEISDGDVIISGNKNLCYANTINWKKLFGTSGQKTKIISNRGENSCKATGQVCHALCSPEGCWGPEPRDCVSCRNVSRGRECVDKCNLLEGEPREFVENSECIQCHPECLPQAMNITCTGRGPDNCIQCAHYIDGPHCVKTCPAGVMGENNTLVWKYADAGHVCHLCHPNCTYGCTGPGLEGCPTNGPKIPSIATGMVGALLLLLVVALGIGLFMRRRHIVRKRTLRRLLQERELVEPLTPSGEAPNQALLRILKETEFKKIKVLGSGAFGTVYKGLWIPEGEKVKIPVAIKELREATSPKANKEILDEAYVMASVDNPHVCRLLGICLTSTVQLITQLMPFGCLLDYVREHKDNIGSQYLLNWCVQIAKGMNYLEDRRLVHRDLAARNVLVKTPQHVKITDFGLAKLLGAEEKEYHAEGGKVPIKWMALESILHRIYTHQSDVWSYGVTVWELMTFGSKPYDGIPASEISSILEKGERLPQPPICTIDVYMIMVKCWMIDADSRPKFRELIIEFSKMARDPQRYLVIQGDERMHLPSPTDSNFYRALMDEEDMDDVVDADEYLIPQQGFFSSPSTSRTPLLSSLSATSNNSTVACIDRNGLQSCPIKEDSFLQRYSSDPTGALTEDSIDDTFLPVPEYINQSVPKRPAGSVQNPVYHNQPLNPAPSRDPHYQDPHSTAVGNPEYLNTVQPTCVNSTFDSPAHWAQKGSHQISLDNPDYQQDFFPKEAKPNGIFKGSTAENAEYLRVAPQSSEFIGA
# kinases in BCWM.1 cells (Homo sapiens, UniProt P49840), sequence (P49840 2-483 limits assumed): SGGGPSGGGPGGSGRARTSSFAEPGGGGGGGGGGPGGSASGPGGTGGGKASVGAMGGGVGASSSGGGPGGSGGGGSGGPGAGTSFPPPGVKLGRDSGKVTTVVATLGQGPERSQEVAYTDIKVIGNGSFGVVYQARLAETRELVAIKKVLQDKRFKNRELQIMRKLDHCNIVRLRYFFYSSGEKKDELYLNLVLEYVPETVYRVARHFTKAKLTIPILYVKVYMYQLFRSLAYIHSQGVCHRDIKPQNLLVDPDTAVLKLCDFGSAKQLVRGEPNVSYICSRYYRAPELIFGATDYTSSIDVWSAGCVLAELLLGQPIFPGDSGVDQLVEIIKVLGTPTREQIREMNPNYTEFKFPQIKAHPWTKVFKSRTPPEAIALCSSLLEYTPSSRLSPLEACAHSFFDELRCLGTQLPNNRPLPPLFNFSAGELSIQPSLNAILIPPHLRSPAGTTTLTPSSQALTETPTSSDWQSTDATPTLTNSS
# kinases in BCWM.1 cells (Homo sapiens, UniProt Q13557), sequence (Q13557 2-499 limits assumed): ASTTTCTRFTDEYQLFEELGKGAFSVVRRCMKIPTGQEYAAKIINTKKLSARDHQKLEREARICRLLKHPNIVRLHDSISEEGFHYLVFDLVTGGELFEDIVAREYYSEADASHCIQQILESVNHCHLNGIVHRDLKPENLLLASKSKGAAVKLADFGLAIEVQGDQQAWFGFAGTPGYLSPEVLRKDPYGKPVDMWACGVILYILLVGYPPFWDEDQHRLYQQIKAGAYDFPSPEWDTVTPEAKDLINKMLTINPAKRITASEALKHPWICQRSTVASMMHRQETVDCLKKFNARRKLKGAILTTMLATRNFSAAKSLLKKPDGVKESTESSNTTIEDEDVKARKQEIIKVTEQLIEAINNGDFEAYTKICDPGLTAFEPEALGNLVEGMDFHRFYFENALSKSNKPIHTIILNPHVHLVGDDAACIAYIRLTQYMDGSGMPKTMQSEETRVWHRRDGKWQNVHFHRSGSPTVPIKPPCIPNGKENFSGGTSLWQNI
# kinases in BCWM.1 cells (Homo sapiens, UniProt Q13233), sequence (Q13233 2-1512 limits assumed): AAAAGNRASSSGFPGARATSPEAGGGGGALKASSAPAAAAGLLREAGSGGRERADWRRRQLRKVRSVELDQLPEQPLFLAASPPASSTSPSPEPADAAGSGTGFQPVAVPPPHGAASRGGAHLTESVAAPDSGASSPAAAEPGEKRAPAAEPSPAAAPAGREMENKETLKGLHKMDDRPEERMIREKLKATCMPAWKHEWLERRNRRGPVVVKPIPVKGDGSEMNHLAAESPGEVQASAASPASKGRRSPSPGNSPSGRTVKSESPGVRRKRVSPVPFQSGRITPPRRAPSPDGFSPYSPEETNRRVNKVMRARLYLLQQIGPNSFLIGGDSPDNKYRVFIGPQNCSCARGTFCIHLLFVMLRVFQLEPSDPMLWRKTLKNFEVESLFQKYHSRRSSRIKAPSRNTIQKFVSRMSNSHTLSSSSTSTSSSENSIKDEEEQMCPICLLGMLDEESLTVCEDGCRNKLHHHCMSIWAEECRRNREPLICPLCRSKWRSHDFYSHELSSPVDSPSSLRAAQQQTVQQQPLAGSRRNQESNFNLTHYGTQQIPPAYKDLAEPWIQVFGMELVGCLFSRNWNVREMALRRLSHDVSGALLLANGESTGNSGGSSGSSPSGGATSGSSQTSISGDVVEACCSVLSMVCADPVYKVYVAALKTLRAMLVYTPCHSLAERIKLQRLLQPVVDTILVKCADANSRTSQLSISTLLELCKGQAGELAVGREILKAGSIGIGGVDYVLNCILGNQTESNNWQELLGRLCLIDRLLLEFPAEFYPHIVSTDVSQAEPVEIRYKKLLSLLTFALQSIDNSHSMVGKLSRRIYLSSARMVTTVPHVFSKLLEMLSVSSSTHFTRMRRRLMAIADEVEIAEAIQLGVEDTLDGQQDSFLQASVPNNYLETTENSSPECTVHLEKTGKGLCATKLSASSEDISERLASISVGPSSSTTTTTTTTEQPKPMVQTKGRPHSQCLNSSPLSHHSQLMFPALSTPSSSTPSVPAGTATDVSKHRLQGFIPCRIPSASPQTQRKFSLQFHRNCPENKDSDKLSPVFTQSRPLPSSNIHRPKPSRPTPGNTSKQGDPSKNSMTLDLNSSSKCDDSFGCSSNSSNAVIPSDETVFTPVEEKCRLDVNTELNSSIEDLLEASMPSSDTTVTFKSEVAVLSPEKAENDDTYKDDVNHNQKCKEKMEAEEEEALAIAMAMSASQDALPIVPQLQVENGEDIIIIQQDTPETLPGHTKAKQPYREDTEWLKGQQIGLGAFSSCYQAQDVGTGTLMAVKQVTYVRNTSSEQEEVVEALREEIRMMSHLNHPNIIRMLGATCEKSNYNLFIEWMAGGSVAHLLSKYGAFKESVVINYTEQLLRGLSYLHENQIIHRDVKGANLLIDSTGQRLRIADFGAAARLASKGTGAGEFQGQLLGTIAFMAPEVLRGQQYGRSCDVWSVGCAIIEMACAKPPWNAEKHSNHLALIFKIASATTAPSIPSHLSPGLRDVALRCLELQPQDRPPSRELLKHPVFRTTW
# kinases in BCWM.1 cells (Homo sapiens, UniProt P51451), sequence (P51451 2-505 limits assumed): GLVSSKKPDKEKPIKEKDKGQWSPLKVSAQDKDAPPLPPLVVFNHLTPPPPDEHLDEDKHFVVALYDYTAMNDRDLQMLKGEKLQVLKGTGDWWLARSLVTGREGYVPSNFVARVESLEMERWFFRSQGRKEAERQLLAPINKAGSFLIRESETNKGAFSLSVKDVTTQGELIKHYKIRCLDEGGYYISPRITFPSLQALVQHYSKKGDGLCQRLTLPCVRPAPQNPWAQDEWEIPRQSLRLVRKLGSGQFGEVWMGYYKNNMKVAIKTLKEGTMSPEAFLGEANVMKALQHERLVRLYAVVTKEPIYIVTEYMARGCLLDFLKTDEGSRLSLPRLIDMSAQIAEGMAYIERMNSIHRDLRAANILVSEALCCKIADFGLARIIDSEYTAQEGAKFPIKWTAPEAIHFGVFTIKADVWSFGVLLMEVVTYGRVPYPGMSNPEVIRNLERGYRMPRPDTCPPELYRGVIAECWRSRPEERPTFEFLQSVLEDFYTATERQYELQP
# kinases in BCWM.1 cells (Homo sapiens, UniProt P78356), sequence (P78356 2-416 limits assumed): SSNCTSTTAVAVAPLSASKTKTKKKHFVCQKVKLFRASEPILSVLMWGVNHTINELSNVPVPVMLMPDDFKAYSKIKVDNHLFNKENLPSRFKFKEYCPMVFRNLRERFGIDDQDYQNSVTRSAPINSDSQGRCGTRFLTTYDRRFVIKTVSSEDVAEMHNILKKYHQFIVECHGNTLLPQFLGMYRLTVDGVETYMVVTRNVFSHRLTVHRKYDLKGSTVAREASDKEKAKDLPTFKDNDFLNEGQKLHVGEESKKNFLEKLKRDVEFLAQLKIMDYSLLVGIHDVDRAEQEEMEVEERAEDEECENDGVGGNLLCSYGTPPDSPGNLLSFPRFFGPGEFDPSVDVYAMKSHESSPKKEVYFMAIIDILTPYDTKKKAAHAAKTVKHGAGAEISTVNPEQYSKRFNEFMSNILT
smiles,measurement,setting,value
C=CC(=O)N1CC[C@H](Nc2nccc(Nc3ncc(C(=O)Nc4c(C)cccc4C)s3)n2)C1 [Example I-3],% change of MS signal compared to control sample,kinases in BCWM.1 cells [1],>96%
same,% change of MS signal compared to control sample,kinases in BCWM.1 cells [2],−2.8% and −9%
same,% change of MS signal compared to control sample,kinases in BCWM.1 cells [3],−8.5% and −8.7%
same,% change of MS signal compared to control sample,kinases in BCWM.1 cells [4],3.6% and 9.7%
same,% change of MS signal compared to control sample,kinases in BCWM.1 cells [5],22.5% and 18.8%
same,% change of MS signal compared to control sample,kinases in BCWM.1 cells [6],3.5% and 9%
same,% change of MS signal compared to control sample,kinases in BCWM.1 cells [7],−3.7% and −4.5%
same,% change of MS signal compared to control sample,kinases in BCWM.1 cells [8],18.1% and 17.8%
same,% change of MS signal compared to control sample,kinases in BCWM.1 cells [9],−2.9% and −1.6%
same,% change of MS signal compared to control sample,kinases in BCWM.1 cells [10],20% and 17%
C=CC(=O)N1CCC(Cn2ccc(Nc3ncc(C(=O)Nc4c(C)cccc4Cl)s3)n2)C1 (centres unmarked) [II-1],EC50,BCWM.1,0.084 µM
same,EC50,OCI-Ly19,7.88 µM
same,EC50,HBL-1,0.735 µM
same,EC50,Ramos,> 20 µM
same,EC50,MWCL-1,0.121 µM
same,EC50,TMD-8,0.573 µM
same,IC50,BTK,0.0011 µM
CCC(=O)N1CC[C@H](Nc2nccc(Nc3ncc(C(=O)Nc4c(C)cccc4C)s3)n2)C1 [Example I-9],% change of MS signal compared to control sample,kinases in BCWM.1 cells [11],6.5%
same,% change of MS signal compared to control sample,kinases in BCWM.1 cells [12],−1.1% and 7.7%
same,% change of MS signal compared to control sample,kinases in BCWM.1 cells [13],−12.2% and −10.2%
same,% change of MS signal compared to control sample,kinases in BCWM.1 cells [14],3.2% and 10.9%
same,% change of MS signal compared to control sample,kinases in BCWM.1 cells [15],−8.9% and −10.9%
same,% change of MS signal compared to control sample,kinases in BCWM.1 cells [16],−2.8% and −0.3%
same,% change of MS signal compared to control sample,kinases in BCWM.1 cells [17],−8.1% and −8.2%
same,% change of MS signal compared to control sample,"kinases in BCWM.1 cells [18]; JAK1, Protein Kinase Domain",−11.5% and −6.7%
same,% change of MS signal compared to control sample,"kinases in BCWM.1 cells [18]; JAK1 domain2, Activation Loop",−15.6% and −13.9%
same,% change of MS signal compared to control sample,"kinases in BCWM.1 cells [18]; JAK1 domain2, Lys1",−18.1% and −14.4%
same,% change of MS signal compared to control sample,kinases in BCWM.1 cells [19],−13.7% and −19.7%
same,% change of MS signal compared to control sample,kinases in BCWM.1 cells [20],−3.3% and −0.4%
same,% change of MS signal compared to control sample,kinases in BCWM.1 cells [21],−19%
same,% change of MS signal compared to control sample,kinases in BCWM.1 cells [22],−4.5%
same,% change of MS signal compared to control sample,kinases in BCWM.1 cells [23],−9.8%
